# Patent US20130203823A1, “STABLE TOPICAL COMPOSITIONS FOR 1,2,4-THIADIAZOLE DERIVATIVES” (JANSSEN PHARMACEUTICAL, INC., priority 2009, published 2013)
# Experiments:
# [1] = Stability of the compound in the composition on storage, concentration by HPLC versus initial concentration; format: physicochemical
# Description: The compositions of the present invention have desired and improved properties, including the extended shelf-life or stability and the suitable commercial production. As used herein, the terms ‘stable composition’, ‘stable formulation’, ‘composition with extended shelf-life’ or variants thereof refer to the compound of Formula I, II, or III (and most preferably Compounds Ia, IIa, and IIIa) in the composition is stable. The stability or shelf-life of the compound may be determined by measuring the concentration and any degradation product of the compound of Formula I, II or III in the compositions using high performance liquid chromatography (HPLC). As commonly referred in the art, the compound is considered to be stable or being stabilized when the concentration of the compound retains at least about 90% to at least about 110%, preferably at least about 95% to at least about 105%, of the original concentration of the compound.
# By way of example, the stability of the compound of Formula I, II, or III is determined using HPLC equipped with a temperature-controlled autosampler, a thermostatic column compartment, and an UV detector at about 326 nm (Agilent 1100, Waters alliance HPLC). A Zorbax C18 column is used for analyzing Compound Ia and a YMC-Pack Hydrosphere C18 column is used for analyzing Compound IIa. A binary linear gradient of mobile phases A and B is used. The mobile phase A may consist of about 0.2% trifluroacetic acid in water and the mobile phase B may consist of about 0.2% trifluroacetic acid in methanol. The gradient conditions are provided below.
# The stability of Compound Ia was examined by measuring the concentration of Compound Ia using HPLC. The concentration of the compound in the composition stored at various temperatures for a period of time was compared to the initial concentration of the compound prior to storage.
# [2] = In vitro skin permeation study, cadaver skin finite dose technique, Franz diffusion cell; format: in vitro ADME, human
# Procedure: The cadaver skin finite dose technique was used for the studies. Split thickness human cadaver trunk skin was obtained from skin bank and stored in a water-impermeable plastic bag at about −70° C. Prior to each experiment, skin was thawed in water bath at about 37° C., then cut into sections large enough to fit on the Franz diffusion cell. The diffusion cells were mounted in a diffusion apparatus and filled with a receptor solution of ethanol/water/formic acid (25/75/0.3), which was stirred at about 600 RPM and maintained at about 32° C. The skin was mounted onto the diffusion cell, where the stratum corneum side faced the donor compartment and the dermal side faced the receiving compartment. About 10 μl per cm^2 of the composition was applied to the skin using a pipette. The dose was spread throughout the skin surface with a Teflon tip of the pipette. After about 4, 8, 12 and 24 hrs, the receptor solution was removed and replaced with fresh receptor solution. An aliquot was taken for analysis. The skin surface was washed with about 0.5 ml of a solvent mixture of methanol/water/formic acid (90/10/0.3). The solvent mixture was filtered and an aliquot was taken for analysis. Subsequently, the dermis and epidermis were separated and Compound IIa was extracted using the solvent mixture. The solvent mixture was filtered and an aliquot was taken for analysis. Samples were analyzed using HPLC.
# [3] = aqueous gel formulation B, 0.30% w/w Compound IIa
# [4] = aqueous gel formulation B, 0.60% w/w Compound IIa
# [5] = aqueous gel formulation B, 1.2% w/w Compound IIa
# [6] = cream composition E (as titled), 0.30% w/w Compound IIa
# [7] = cream composition E (as titled), 0.60% w/w Compound IIa
# [8] = cream composition E (as titled), 1.2% w/w Compound IIa
# [9] = cream composition E (as titled), 2.4% w/w Compound IIa
structure (smiles),measurement,setting,value
"COc1ccccc1-c1nc(=Nc2ccccc2)sn1-c1ccccc1OC [Compound IIa, [2-(2-methoxyphenyl)-3-(2-methoxyphenyl)-2H-[1,2,4]-thiadiazol-5-ylidene]-phenylamine]",% of Initial Concentration,"[1]; aqueous gel composition B, 0.3% Compound IIa, 12 months, 5° C.",99.47%
same,% of Initial Concentration,"[1]; aqueous gel composition B, 0.3% Compound IIa, 12 months, 25° C.",95.60%
same,% of Initial Concentration,"[1]; aqueous gel composition B, 0.3% Compound IIa, 24 months, 5° C.",97.92%
same,% of Initial Concentration,"[1]; aqueous gel composition B, 0.3% Compound IIa, 24 months, 25° C.",89.49%
same,% of Initial Concentration,"[1]; aqueous gel composition B, 0.6% Compound IIa, 12 months, 25° C.",93.90%
same,% of Initial Concentration,"[1]; aqueous gel composition B, 0.6% Compound IIa, 24 months, 5° C.",97.02%
same,% of Initial Concentration,"[1]; aqueous gel composition B, 0.6% Compound IIa, 24 months, 25° C.",92.69%
same,% of Initial Concentration,"[1]; aqueous gel composition B, 1.2% Compound IIa, 12 months, 25° C.",95.49%
same,% of Initial Concentration,"[1]; aqueous gel composition B, 1.2% Compound IIa, 24 months, 5° C.",97.56%
same,% of Initial Concentration,"[1]; aqueous gel composition B, 1.2% Compound IIa, 24 months, 25° C.",93.87%
same,% of Initial Concentration,"[1]; aqueous gel composition B, 1.5% Compound IIa, 12 months, 5° C.",100.68%
same,% of Initial Concentration,"[1]; aqueous gel composition B, 1.5% Compound IIa, 12 months, 25° C.",99.03%
same,% of Initial Concentration,"[1]; aqueous gel composition B, 2.4% Compound IIa, 12 months, 25° C.",101.30%
same,Stability in the composition (in words),"[1]; aqueous gel composition B, various amounts of Compound IIa, ambient condition",stable at ambient condition
same,Time for which the compound was stable,"[1]; cream composition C (so in the source), ambient condition",at least 6 months
same,Time for which the compound was stable,"[1]; cream composition C (so in the source), refrigerated condition",at least 18 months
same,% of Initial Concentration,"[1]; cream composition D, 1.2% Compound IIa, 6 months, 5° C.",100.0%
same,% of Initial Concentration,"[1]; cream composition D, 1.2% Compound IIa, 6 months, 25° C.",94.1%
same,% of Initial Concentration,"[1]; cream composition D, 1.2% Compound IIa, 12 months, 5° C.",98.3%
same,% of Initial Concentration,"[1]; cream composition D, 1.2% Compound IIa, 18 months, 5° C.",100.8%
same,% of Initial Concentration,"[1]; emulsion composition E, 3 months, 5° C.",101.40%
same,% of Initial Concentration,"[1]; emulsion composition E, 3 months, 25° C.",98.01%
same,% of Initial Concentration,"[1]; emulsion composition E, 6 months, 5° C.",100.11%
same,% of Initial Concentration,"[1]; emulsion composition E, 6 months, 25° C.",95.61%
same,% of Initial Concentration,"[1]; emulsion composition E, 9 months, 5° C.",100.20%
same,% of Initial Concentration,"[1]; emulsion composition E, 13 months, 5° C.",100.54%
same,Time for which the compound was stable,"[1]; emulsion composition E, refrigerated condition",at least 13 months
same,Skin penetration (in words),[2]; aqueous gel formulation B,"able to penetrate into epidermis, dermis and receptor solution"
same,Total amount permeated into Dermis,[2]; [3],0.004 µg
same,Total amount permeated into Epidermis,[2]; [3],0.361 µg
same,Total amount permeated into Receptor solution,[2]; [3],0.020 µg
same,Total amount permeated into Dermis,[2]; [4],0.007 µg
same,Total amount permeated into Epidermis,[2]; [4],0.164 µg
same,Total amount permeated into Receptor solution,[2]; [4],0.045 µg
same,Total amount permeated into Dermis,[2]; [5],0.007 µg
same,Total amount permeated into Epidermis,[2]; [5],0.537 µg
same,Total amount permeated into Receptor solution,[2]; [5],0.074 µg
same,"Total penetration amount in epidermis, dermis and receptor solution versus concentration (in words)",[2]; as the concentration of Compound IIa increased in the formulations,increased
same,Skin penetration (in words),[2]; cream composition D,"able to penetrate into epidermis, dermis and receptor solution"
same,Total amount permeated into Dermis,[2]; [6],0.003 µg
same,Total amount permeated into Epidermis,[2]; [6],0.279 µg
same,Total amount permeated into Receptor solution,[2]; [6],0.015 µg
same,Total amount permeated into Dermis,[2]; [7],0.015 µg
same,Total amount permeated into Epidermis,[2]; [7],0.357 µg
same,Total amount permeated into Receptor solution,[2]; [7],0.025 µg
same,Total amount permeated into Dermis,[2]; [8],0.014 µg
same,Total amount permeated into Epidermis,[2]; [8],0.428 µg
same,Total amount permeated into Receptor solution,[2]; [8],0.025 µg
same,Total amount permeated into Dermis,[2]; [9],0.028 µg
same,Total amount permeated into Epidermis,[2]; [9],0.681 µg
same,Total amount permeated into Receptor solution,[2]; [9],0.070 µg
"COc1ccccc1-c1nc(Nc2ccccc2)s[n+]1-c1ccccc1OC.[Br-] [Compound Ia, 2-(2-methoxyphenyl)-3-(2-methoxyphenyl)-5-phenylamino-[1,2,4]-thiadiazol-2-ium]",Stability in the composition (in words),"[1]; aqueous gel composition A, 0.3% Compound Ia, ambient condition",stable at ambient condition
same,Time for which the compound was stable,"[1]; emulsion composition F, refrigerated condition",at least 4 weeks
